Assay results from patent publication EP0167958A2, “Oral solid pharmaceutical form with sequential action for the administering of drugs with ulcerogenic side effect” (LABORATORIO ITALIANO BIOCHIMICO FARMACEUTICO LISAPHARMA …, priority 1984, dated 1986).

System: gastric mucosa
Assay: test of pylorus ligature in rats (ulcerating index, inhibition of FANS-induced gastric lesions)
Type: in vivo, Charles River Wistar rats
Conditions: p.o., pylorus-ligated rats, 6 hours
Description: Several compositions containing sucralfate : FANS in weight ratios comprised within the range of from 1: 4 to 8 : 1 have been tested on rats by means of the test of pylorus ligature according to the technique Linda J. et al., J. Pharmac., 1978, 30, 244 - 246 "Inhibitors of Gastric Lesions in the Rat".
The testing has been carried out on Charles River Wis tar rats of 230 - 270 g of weight and in the number of 8 rats per each group. The rats, fasting from 15 hours, have been submitted to etheric anesthesia and then to the liga ture of the pylorus. The rats have been treated, immediate ly after the recovery, by means of gastric probe, with the FANS alone, with the FANS in the sucralfate-FANS form with sequential action according to the present invention, and by means of the administering of sucralfate first, and then, after a 10 minutes interval, of FANS.
The single active principles have been administered as aqueous suspension in sodium-CMC at 0.5% p.o.
Six hours later than the intervention, the rats have been sacrificed and the stomach, after having been withdrawn, has been cut along the line of the greater curvature. The stomach, after having been slightly washed with bidistilled water has been spread out and mounted on a support for the'evaluation of induced ulceration. The alterations detected on the gastric mucosa have been quantified on the basis of their type and largeness, with a value ranging from 0 to 1 (ulcerating index, UI), according to the following empirical scale: • 0 = mucose not damaged (control submitted to surgical handling and to placebo) • 0.25 = diffused accentuated hyperemia • 0.50 = diffused erosion • 0.75 = diffused hemorrhagic ulceration • 1 = diffused hemorrhagic ulceration with perforation and damaging of the whole gastric mucosa.
The activity of the form of sucralfate and FANS with sequential action according to the invention has been expressed as percentage inhibition of the lesion relatively to that observed in the control group as treated with the ligature of pylorus and administering of FANS only, and com pared to that obtained from the contemporary administering of sucralfate and FANS. The ID 50 (Inhibiting Dosis 50) was computated by the probit method.

3,4,5,6-tetra-(polyhydroxyalumino)-n-D-glu· copyranosyl sulphate - 2,3,4,5-tetra-(polyhydroxyalumino)-B-D-fructofuranoside sulphate [sucralfate]
Inhibiting Dosis 50 of sucralfate for the ulcerogenic activity of some FANS (Administering of the sucralfate-FANS form with sequential action, FANS: Diclofenac Na (50 mg/kg)): 96.6 mg | Inhibiting Dosis 50 of sucralfate for the ulcerogenic activity of some FANS (Administering of the sucralfate-FANS form with sequential action, FANS: Indomethacin (100 mg/kg)): 97 mg | Inhibiting Dosis 50 of sucralfate for the ulcerogenic activity of some FANS (Administering of the sucralfate-FANS form with sequential action, FANS: Sodium indoprofen betainate (200 mg/kg as indoprofen)): 85.6 mg | Inhibiting Dosis 50 of sucralfate for the ulcerogenic activity of some FANS (Contemporary administering of sucralfate and of FANS, FANS: Diclofenac Na (50 mg/kg)): 157 mg | Inhibiting Dosis 50 of sucralfate for the ulcerogenic activity of some FANS (Contemporary administering of sucralfate and of FANS, FANS: Indomethacin (100 mg/kg)): 204 mg | Inhibiting Dosis 50 of sucralfate for the ulcerogenic activity of some FANS (Contemporary administering of sucralfate and of FANS, FANS: Sodium indoprofen betainate (200 mg/kg as indoprofen)): 206 mg
